Experimental data published in paper PMC10692163, “Structure-based discovery of novel P-glycoprotein inhibitors targeting the nucleotide binding domains” (Scientific Reports, 2023).
Where two headings read alike, the source gives them in different places.

Columns and labels:
[1] = tested on: P-gp nucleotide binding domain; conditions: Table S1, supplement reference list, cited from earlier work
[2] = molecular target: T1, P-gp (Homo sapiens, UniProt P08183); design: method as in PMID 1356264, PMID 7911680, PMID 7772017, PMID 11121420; conditions: read-out: Binding affinity for ATP to P-gp; cited from earlier work
T1 sequence (P08183 whole entry): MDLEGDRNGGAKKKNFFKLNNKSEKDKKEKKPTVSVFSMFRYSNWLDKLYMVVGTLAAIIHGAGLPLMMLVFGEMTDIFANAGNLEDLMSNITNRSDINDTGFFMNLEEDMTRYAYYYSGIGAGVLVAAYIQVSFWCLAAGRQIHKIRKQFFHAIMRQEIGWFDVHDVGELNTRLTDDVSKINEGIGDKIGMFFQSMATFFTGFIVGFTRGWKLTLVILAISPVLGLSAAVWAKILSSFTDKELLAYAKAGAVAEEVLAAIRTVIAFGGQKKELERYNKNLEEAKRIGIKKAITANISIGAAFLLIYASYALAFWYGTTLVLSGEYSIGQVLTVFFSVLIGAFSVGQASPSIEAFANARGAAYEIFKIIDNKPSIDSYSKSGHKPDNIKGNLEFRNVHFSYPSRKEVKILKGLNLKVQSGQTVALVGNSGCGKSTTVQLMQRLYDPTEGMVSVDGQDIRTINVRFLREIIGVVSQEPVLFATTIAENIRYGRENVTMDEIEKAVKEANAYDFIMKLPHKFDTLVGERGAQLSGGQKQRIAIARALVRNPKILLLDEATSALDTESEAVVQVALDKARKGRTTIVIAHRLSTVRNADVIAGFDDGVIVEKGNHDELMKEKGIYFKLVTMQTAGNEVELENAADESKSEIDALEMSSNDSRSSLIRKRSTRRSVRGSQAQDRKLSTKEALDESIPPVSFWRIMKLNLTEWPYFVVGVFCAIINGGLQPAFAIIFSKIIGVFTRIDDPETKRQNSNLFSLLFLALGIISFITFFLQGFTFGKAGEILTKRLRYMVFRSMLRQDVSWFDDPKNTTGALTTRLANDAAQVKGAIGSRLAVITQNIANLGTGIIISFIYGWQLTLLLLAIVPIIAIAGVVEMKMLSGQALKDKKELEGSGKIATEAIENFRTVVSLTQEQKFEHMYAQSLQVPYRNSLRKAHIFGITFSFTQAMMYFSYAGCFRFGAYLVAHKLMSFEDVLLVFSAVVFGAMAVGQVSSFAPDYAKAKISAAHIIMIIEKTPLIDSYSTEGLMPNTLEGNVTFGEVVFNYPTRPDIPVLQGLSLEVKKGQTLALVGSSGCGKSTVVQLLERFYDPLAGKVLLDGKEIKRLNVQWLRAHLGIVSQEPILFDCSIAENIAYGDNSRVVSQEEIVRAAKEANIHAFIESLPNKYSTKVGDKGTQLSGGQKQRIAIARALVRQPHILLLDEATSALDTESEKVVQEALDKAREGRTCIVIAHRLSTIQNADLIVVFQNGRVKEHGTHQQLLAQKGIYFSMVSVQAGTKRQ

[3] = molecular target: T1, P-gp; experiment: Inhibition of verapamil-stimulated sensitive ATPase activity (ATP consumption) in P-gp expressing Sf9 vesicles; assay type: biochemical; design: purchased GenoMembrane Co., Ltd (Kanagawa, Japan); host or cells: Sf9 insect cells infected with baculovirus; purified plasma membrane vesicles; conditions: for IC50: 50 µM verapamil
Procedure: P-gp-mediated drug transport across membranes is driven by energy derived from hydrolysis of ATP. It is, therefore, possible to evaluate drug binding to P-gp by determining the ATPase activity. The method was modified from the procedure reported by Sarkadi et al.[64]. Briefly, solutions of test compounds and positive and negative controls in a reaction medium containing 50 mM MOPS-Tris (pH 7.4), 0.1 mM EGTA, 2 mM DDT, 50 mM KCl, 5 mM sodium azide, and 1 mM ouabain were incubated on ice in a 96 well plate. Then P-gp containing membrane vesicles to a final concentration of 0.5 mg/ml were added on ice to each well. […] Then, the ATPase reaction was started by the addition of MgATP to a final concentration of 5 mM and the plates with vesicles were incubated at 37 ^∘ C for 60 min. The reaction was stopped by the addition of a 10% SDS solution and the amount of inorganic phosphate was determined immediately by addition of a coloring solution containing final concentrations of 8 mM ascorbic acid, 10 mM zinc acetate, and 7 mM ammonium molybdate. The wells were then incubated at 37 ^∘ C for 20 min and the absorbance was scanned at wave lengths from 630 to 850 nm, and 740 nm was used for calculation of ATP consumption based on a phosphate standard curve freshly made with each experiment. To estimate sensitive ATPase activity mediated by P-gp, all experiments were conducted with no compound controls (2% DMSO), positive controls and background controls in which no stop solution was added, all in the absence and presence of 500 µM vanadate. The absorbance measured for a test condition was converted to nmol inorganic phosphate and normalized for reaction time and protein amount. The sensitive ATPase activity was then obtained by subtracting the inorganic phosphate generated in the presence of 500 µM vanadate at otherwise similar conditions.
(§1) Calcein fluorescence in arbitrary unit (a.u) corrected for background signal, which was the signal obtained from the cells incubated with HBSS ^7.4+ or HBSS ^5.5+ without calcein-AM, was plotted as a function of time and slopes (denoted m below) were obtained by linear regression. The increase in fluorescent calcein is a surrogate marker of increased P-gp inhibition. The slope from curves of fluorescence as a function of time for a compound ( mcompound ) was normalized to the slope of fluorescence in cells exposed to HBSS ^7.4+ or HBSS ^5.5+ only (referred as control, mcontrol ).

[4] = molecular target: T1, P-gp; experiment: Calcein-AM efflux assay in MDCKII MDR1 cells; assay type: cell-based; design: host or cells: MDCKII MDR1 cells
Procedure: Calcein-AM efflux experiments were performed on MDCKII MDR1 cells, which were seeded on black 96-well microplates. Before the experiments, media was removed from the wells and 50 µL pre-warmed HBSS ^7.4+ was added. After a 15 min incubation period, the HBSS ^7.4+ buffer was removed and 50 µL of solution containing P-gp inhibitor or test compound dissolved in HBSS ^7.4+ or HBSS ^5.5+ were added to the individual wells, followed by addition of 50 µL 10.0 µM calcein-AM giving a final calcein-AM concentration of 5.0 µM. Calcein-AM diffuses into the cell where it is either hydrolysed to a membrane-impermeable fluorescent calcein dye or extruded from the cell by P-gp[63]. Inhibiting P-gp increases the amount of calcein in the cell and a higher amount is hydrolysed to calcein, thus the fluorescence measured is increased. The highest concentration of each compound was added to a cell-containing well in the absence of calcein-AM to investigate if compounds were fluorescent themselves.
as §1

[5] = Sf9 vesicles expressing human P-gp, 5 mM MgATP, 60 min, 37 °C, read-out: ATP assay IC50

Which “Class (known P-gp NBD inhibitor)” value ([1]; ref [4]) does the source give for O=c1c(O)c(-c2ccccc2)oc2ccccc12 [3OH-flavone] here?
Its value is “Marginal”.

With C=C(CO)C1Cc2c(ccc3c(=O)c4c(oc23)COc2cc(OC)c(OC)cc2-4)O1 (centres unmarked) [6a,12a,-Dehydroamorphigenin] as the compound, how does the “Class (known P-gp NBD inhibitor)” value ([1]; ref [1]) read?
The value was “Marginal”.

Which “Class (known P-gp NBD inhibitor)” value ([1]; ref [1]) does the source give for C=C(CO)[C@H]1Cc2c(ccc3c2O[C@@H]2COc4cc(OC)c(OC)cc4[C@]2(O)C3=O)O1 [12a-Hydroxyamorphigenin] here?
The value was “Marginal”.

Which Kd [2] does the source give for Nc1ncnc2c1ncn2[C@@H]1O[C@H](COP(=O)(O)OP(=O)(O)OP(=O)(O)O)[C@@H](O)[C@H]1O [ATP] here?
Its Kd is 300 to 800 µM.

Which “Class (known P-gp NBD inhibitor)” value ([1]; ref [1]) does the source give for C=C(CO)[C@H]1Cc2c(ccc3c2O[C@@H]2COc4cc(OC)c(OC)cc4[C@@H]2C3=O)O1 [Amorphigenin] here?
Its value is “Marginal”.

For O=c1cc(-c2ccc(O)cc2)oc2cc(O)cc(O)c12 [Apigenin], which “Class (known P-gp NBD inhibitor)” value ([1]; ref [4]) is on record?
The value was “Marginal”.

With COc1ccc(-c2coc3cc(O)cc(O)c3c2=O)cc1 [Biochanin A] as the compound, how does the “Class (known P-gp NBD inhibitor)” value ([1]; ref [2]) read?
Its value is “Active”.

With O=c1cc(-c2ccccc2)oc2cc(O)cc(O)c12 [Chrysin] as the compound, how does the “Class (known P-gp NBD inhibitor)” value ([1]; ref [1]) read?
The value was “Marginal”.

Which “Class (known P-gp NBD inhibitor)” value ([1]; ref [5]) does the source give for Oc1cc(O)c2c(c1)O[C@H](c1ccc(O)c(O)c1)[C@H](O)C2 [Epicatechin] here?
The value was “Marginal”.

For Oc1cc(O)c2c(c1)O[C@H](c1cc(O)c(O)c(O)c1)[C@H](O)C2 [Epigallocatechin], which “Class (known P-gp NBD inhibitor)” value ([1]; ref [1]) is on record?
The value was “Marginal”.

Which “Class (known P-gp NBD inhibitor)” value ([1]; ref [3]) does the source give for O=C(O[C@@H]1Cc2c(O)cc(O)cc2O[C@@H]1c1cc(O)c(O)c(O)c1)c1cc(O)c(O)c(O)c1 [Epigallocatechingallate (EGCG), Epigallocatechingallate] here?
The value was “Active”.

Which “Class (known P-gp NBD inhibitor)” value ([1]; ref [4]) does the source give for O=c1c(O)c(-c2ccccc2)oc2cc(O)cc(O)c12 [Galangin] here?
The value was “Marginal”.

For C=C(C)[C@H]1Cc2c(ccc3c2O[C@@H]2COc4cc(OC)c(OC)cc4[C@@H]2C3=O)O1 [Rotenone], which “Class (known P-gp NBD inhibitor)” value ([1]; ref [1]) is on record?
Its value is “Active”.

Which “Class (known P-gp NBD inhibitor)” value ([1]; ref [4]) does the source give for COc1cc(C2Oc3cc([C@H]4Oc5cc(O)cc(O)c5C(=O)[C@@H]4O)ccc3OC2CO)ccc1O (some centres unmarked) [Silybin] here?
Its value is “Marginal”.

Which “Effect on verapamil-stimulated sensitive P-gp ATPase activity” value ([3]; 1 µM Tariquidar plus 50 µM verapamil) does the source give for COc1cc2c(cc1OC)CN(CCc1ccc(NC(=O)c3cc(OC)c(OC)cc3NC(=O)c3cnc4ccccc4c3)cc1)CC2 [Tariquidar] here?
Its value is “reduced to the background buffer level”.

And the IC50 [3, 5]?
Its IC50 is 0.11 µM.

Which IC50 [3, 5] does the source give for Cn1cnnc1CC(NS(=O)(=O)N1CCC(C(C)(C)C)CC1)C(=O)O (centres unmarked) [compound 10] here?
The IC50 was 332 µM.

And the IC50 ([3]; log of IC50 in µM, Sf9 vesicles, read-out: ATP assay Log IC50 (converted))?
The IC50 was 331 µM.

What about the IC50 ([4]; MDCKII MDR1 cells, extracellular pH 5.5, 5.0 µM calcein-AM, read-out: Calcein-AM, pH 5.5 IC50) of the same compound?
The IC50 was 127 µM.

And the IC50 ([4]; MDCKII MDR1 cells, extracellular pH 7.4, 5.0 µM calcein-AM, read-out: Calcein-AM, pH 7.4 IC50)?
The IC50 was 299 µM.

What about the “Ability to inhibit calcein-AM efflux” value ([4]; at both pH 5.5 and pH 7.4) of the same compound?
Its value is “ability to inhibit calcein-AM efflux at both pH 5.5 and pH 7.4”.

What about the “Calcein-AM, pH 5.5 LogIC50” value ([4]; log of IC50 in µM, extracellular pH 5.5) of the same compound?
Its value is 2.10.

And the IC50 ([4]; log of IC50 in µM, extracellular pH 7.4, read-out: Calcein-AM, pH 7.4 Log IC50 (converted))?
The IC50 was 302 µM.

With COc1ccc(-c2oc3cc(O)cc(O)c3c(=O)c2O)cc1 [kaempferide] as the compound, how does the “Class (known P-gp NBD inhibitor)” value ([1]; ref [4]) read?
The value was “Marginal”.

Which “Class (known P-gp NBD inhibitor)” value ([1]; ref [4]) does the source give for O=c1c(O)c(-c2ccc(O)cc2)oc2cc(O)cc(O)c12 [kaempferol] here?
Its value is “Marginal”.

For Mitragynine, which “Class (known P-gp NBD inhibitor)” value ([1]; ref [6]) is on record?
The value was “Marginal”.
